Measured values taken from patent US9562053B2, “Benzo-fused heterocyclic derivatives useful as agonists of GPR120” (Janssen Pharmaceutica NV, priority 2013, dated 2017).

Target: T1, Human GPR120 short form (Homo sapiens, UniProt Q5NUL3)
T1 construct: expressed in transfected cells
T1 sequence (Q5NUL3 1-361): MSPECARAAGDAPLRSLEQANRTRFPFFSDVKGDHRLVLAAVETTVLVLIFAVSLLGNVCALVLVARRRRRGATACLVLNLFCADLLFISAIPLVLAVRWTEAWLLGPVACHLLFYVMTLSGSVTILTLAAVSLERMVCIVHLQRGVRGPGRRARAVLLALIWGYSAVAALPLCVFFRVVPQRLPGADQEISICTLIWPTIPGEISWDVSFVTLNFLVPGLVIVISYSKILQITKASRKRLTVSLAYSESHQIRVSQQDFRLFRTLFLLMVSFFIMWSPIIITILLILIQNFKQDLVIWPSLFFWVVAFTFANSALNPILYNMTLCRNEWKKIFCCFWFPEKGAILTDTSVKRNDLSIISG
Test: Human GPR120 in Calcium Flux Assay, Procedure Calcium B (4200 cells/well)
Assay type: cell-based
Excerpt: This in vitro assay serves to assess test compound agonist activity against the short splice variant (SVS with Accession number NM_001195755.1 confirmed by sequencing data) of the GPR120 receptor. The Human Short splice variant #2 (NM_001195755.1) is missing an in-frame coding exon compared to variant 1 (the Human Long splice variant NM_181745.3), resulting in a shorter isoform (GPR120-S) lacking a 16 aa protein segment compared to isoform GPR120-L. The assay platform utilizes HEK-293 cells stably transfected to express the Human GPR120 short form. These cells are first loaded with the Ca^+2 sensitive dye, Fluo-4 NW. Upon stimulation, intracellular released Ca^+2 can bind to the dye and alter its fluorescence intensity. This increase in fluorescence signal, and thus the flux in intracellular [Ca^+2], is detected and quantitated by fluorescence imaging using a FLIPR reader. The effect of the agonist is measured as a function of concentration and used to calculate an EC50 based upon a response curve.
In this procedure 4200 cells/well were employed.
A Human GPR120 clone (Genbank accession number NM_001195755.1) was placed into the pcDNA3.1 mammalian expression vector carrying the neomycin resistance gene. A stable mammalian cell was generated by placing the above clone into a HEK293 background. Clonal cells responding to long chain fatty acids had expression levels of GPR120 confirmed by RT-qPCR. Human HEK-GPR120 cells were cultured in Dulbecco's Modified Eagle's Medium (DMEM)/F12 medium supplemented with 10% fetal bovine serum (FBS), 1% L-Glutamine and 1% penicillin/streptomycin and 0.5 mg/ml G-418. Cells were split 2 times a week to keep the cells in the log-phase growth.
In preparation for the assay, HEK cells stably transfected with Human GPR120 (2.5K cells per well in 25 uL growth medium) were seeded into 384-well plates and then incubated overnight (37° C., 5% CO2). The next day, the media was changed to 20 μl assay buffer and the cell starved for 1 h at 37° C. The dye loading solution (2× dye) was prepared using 10 ml assay buffer, 100 μl of 250 mM probenecid, 1 bottle of Component A, and 20 μl of dye in DMSO. Twenty μl of the 2× dye loading buffer was then added to each well. The plates were incubated at 37° C. for 30 min, then at room temperature for an additional 15 minutes, before performing the assay on FLIPR.
Test compounds were prepared in assay buffer (2 μl of test compound+198 μl assay buffer, final DMSO in assay plate is 0.2%) at the desired concentration, more particularly at 100 μM, 50 μM, 25 μM, 12.5 μM, 6.25 μM, 3.125 μM, 1.562 μM, 0.781 μM, 0.391 μM, 0.195 μM, 0.098 μM, 0.049 μM, 0.024 μM and 0.012 μM.
The assay was performed on a FLIPR plate reader using the following parameters. Baseline was read for 10 seconds at 1 sec intervals. The program was set to transfer 10 μL of ligand from compound plate to cell plate after baseline reading. Aspiration was executed at: 10 μl/sec speed, 4.6 μl height; Dispensing was executed at: 30 μl/sec speed, 45 μl height. After compound addition, each well was read for 300 sec, with measurements collected at 1 sec intervals.
The kinetic data from the FLIPR was based upon a 5 minute window for data collection. The fluorescence of each sample well was used for individual calculations of a normalized RFU value, which was defined as maximum response minus the minimum response. The normalized fluorescence reading (RFU) was calculated as follows: RFU=Fmax−Fmin
The data were fitted to a sigmoidal dose-response curve with a variable Hill slope (<2) using nonlinear regression with GraphPad Prism 5.0 to calculate the EC50 values. The Fitting Equation was: Y=Bottom+(Top−Bottom)/(1+10^((LogEC50−X)*HillSlope)), where X is the log of the concentration and Y is the response.

SMILES: Cc1cc2cc(OC(F)(F)F)cc(COc3ccc(CCC(=O)O)c(C)c3C)c2o1 [Compound 36, 3-(2,3-Dimethyl-4-{[2-methyl-5-(trifluoromethoxy)-1-benzofuran-7-yl]methoxy}phenyl)propanoic acid]
- EC50: 12 nM
